Converted amounts (≈) assume the structure as drawn.
What follows are molecules tested on Mycobacterium tuberculosis (assay: Antitubercular activity against multidrug-resistant Mycobacterium tuberculosis after 6 weeks).
Assay type: functional

SMILES	MIC
COc1cc(C2CC(c3ccccc3Br)=NN2C(C)=O)cc2nc(N)oc12 (stereo not given)	25 µg/mL (≈ 58.2 µM)
COc1cc(C2CC(c3ccc(Cl)cc3Cl)=NN2C(C)=O)cc(N)c1O (stereo not given)	12.5 µg/mL (≈ 31.7 µM)
NNC(=O)c1ccncc1 [ISONIAZID]	6.25 µg/mL (≈ 45.6 µM)
COc1cc(C2CC(c3ccccc3Br)=NN2C(C)=O)cc(N)c1O (stereo not given)	3.25 µg/mL (≈ 8.04 µM)
COc1cc(C2CC(c3ccc(F)cc3)=NN2C(C)=O)cc(N)c1O (stereo not given)	25 µg/mL (≈ 72.8 µM)
COc1cc(C2CC(c3ccc(Cl)cc3Cl)=NN2C(C)=O)cc2nc(S)oc12 (stereo not given)	12.5 µg/mL (≈ 28.6 µM)
COc1cc(C2CC(c3ccccc3)=NN2C(C)=O)cc(N)c1O (stereo not given)	25 µg/mL (≈ 76.8 µM)
COc1cc(C2CC(c3ccc(Cl)cc3Cl)=NN2C(C)=O)cc2nc(N)oc12 (stereo not given)	12.5 µg/mL (≈ 29.8 µM)
CC(=O)N1N=C(c2ccccc2Br)CC1c1ccc2oc(S)nc2c1 (stereo not given)	6.25 µg/mL (≈ 15 µM)
COc1cc(C2CC(c3ccccc3)=NN2C(C)=O)cc2nc(S)oc12 (stereo not given)	12.5 µg/mL (≈ 34 µM)
CC(=O)N1N=C(c2ccccc2Br)CC1c1ccc2oc(N)nc2c1 (stereo not given)	12.5 µg/mL (≈ 31.3 µM)
CC(=O)N1N=C(c2ccccc2)CC1c1ccc2oc(N)nc2c1 (stereo not given)	25 µg/mL (≈ 78 µM)
CC(=O)N1N=C(c2ccccc2)CC1c1ccc2oc(S)nc2c1 (stereo not given)	25 µg/mL (≈ 74.1 µM)
CC(=O)N1N=C(c2ccccc2)CC1c1cc(Cl)c2oc(N)nc2c1 (stereo not given)	25 µg/mL (≈ 70.5 µM)
CC(=O)N1N=C(c2ccccc2Br)CC1c1cc(N)c(O)c(Cl)c1 (stereo not given)	25 µg/mL (≈ 61.2 µM)
COc1cc(C2CC(c3ccc(F)cc3)=NN2C(C)=O)cc2nc(S)oc12 (stereo not given)	6.25 µg/mL (≈ 16.2 µM)
CC(=O)N1N=C(c2ccccc2)CC1c1ccc(O)c(N)c1 (stereo not given)	25 µg/mL (≈ 84.6 µM)
COc1cc(C2CC(c3ccccc3)=NN2C(C)=O)cc2nc(N)oc12 (stereo not given)	6.25 µg/mL (≈ 17.8 µM)
CC(=O)N1N=C(c2ccccc2Br)CC1c1cc(Cl)c2oc(N)nc2c1 (stereo not given)	25 µg/mL (≈ 57.6 µM)
COc1cc(C2CC(c3ccccc3Br)=NN2C(C)=O)cc2nc(S)oc12 (stereo not given)	25 µg/mL (≈ 56 µM)
CC(=O)N1N=C(c2ccccc2)CC1c1cc(N)c(O)c(Cl)c1 (stereo not given)	25 µg/mL (≈ 75.8 µM)
CC(=O)N1N=C(c2ccccc2Br)CC1c1ccc(O)c(N)c1 (stereo not given)	12.5 µg/mL (≈ 33.4 µM)
CC(=O)N1N=C(c2ccccc2)CC1c1cc(Cl)c2oc(S)nc2c1 (stereo not given)	25 µg/mL (≈ 67.2 µM)
COc1cc(C2CC(c3ccc(F)cc3)=NN2C(C)=O)cc2nc(N)oc12 (stereo not given)	25 µg/mL (≈ 67.9 µM)
CC(=O)N1N=C(c2ccccc2Br)CC1c1cc(Cl)c2oc(S)nc2c1 (stereo not given)	12.5 µg/mL (≈ 27.7 µM)
